Literature values, collected in US6846837B2, “Topical administration of basic antifungal compositions to treat fungal infections of the nails” (priority 2002, dated 2005).

Legend:
[1] = forms Ca(OH)2
[2] = not given; remark: listed apart in the source
onychomycosis = details: standard oral treatment

SMILES: [O]=[Ca] [Calcium oxide]
- solubility in water [1]: Soluble in water, Form Ca(OH)2

SMILES: CNC [Dimethylamine]
- pKa: 10.73

SMILES: CC(C)CCN [Isopentylamine]
- pKa: pKa = 10.6

SMILES: O=P([O-])([O-])O.[K+].[K+] [Potassium phosphate, dibasic]
- pH of Aqueous Solution, in words (alkalinity) [2]: Aqueous solution is slightly alkaline

SMILES: O=B[O-].[Na+] [Sodium metaborate]
- pH of Aqueous Solution, in words (alkalinity) [2]: Strongly alkaline

SMILES: CN(C)C [Trimethylamine]
- pKa: 9.81

SMILES: CN(C/C=C/C#CC(C)(C)C)Cc1cccc2ccccc12 [terbinafine]
- disease-free nails, share of cases (onychomycosis): 35-50%
